Test results taken from US20050187187A1, “Carboxyl-reduced derivatives of chondroitin sulfate, preparation thereof, use thereof as a medicinal product and the pharmaceutical compositions containing them” (Aventis Pharmas S.A., priority 2003, published 2005).

How the values were obtained:
[1] = target: T1, bovine factor Xa (Bos taurus, UniProt P00743); assay: Inhibition of factor Xa, chromogenic substrate S-2765 with human antithrombin III; assay type: biochemical; settings: calibrated against Enoxaparin standard
T1 sequence (P01008 33-464 partner): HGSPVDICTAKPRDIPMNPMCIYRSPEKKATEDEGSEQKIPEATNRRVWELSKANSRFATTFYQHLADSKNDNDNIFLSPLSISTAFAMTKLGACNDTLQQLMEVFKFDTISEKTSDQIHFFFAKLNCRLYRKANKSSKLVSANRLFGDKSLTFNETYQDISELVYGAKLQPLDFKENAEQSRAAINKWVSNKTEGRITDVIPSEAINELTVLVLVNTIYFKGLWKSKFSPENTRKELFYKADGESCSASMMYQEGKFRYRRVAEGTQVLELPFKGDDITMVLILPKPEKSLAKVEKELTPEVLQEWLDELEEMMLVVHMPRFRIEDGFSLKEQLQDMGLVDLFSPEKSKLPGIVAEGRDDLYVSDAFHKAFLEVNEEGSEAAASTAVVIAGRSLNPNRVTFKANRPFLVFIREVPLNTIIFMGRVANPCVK
T1 sequence (P00743 234-492 limits assumed): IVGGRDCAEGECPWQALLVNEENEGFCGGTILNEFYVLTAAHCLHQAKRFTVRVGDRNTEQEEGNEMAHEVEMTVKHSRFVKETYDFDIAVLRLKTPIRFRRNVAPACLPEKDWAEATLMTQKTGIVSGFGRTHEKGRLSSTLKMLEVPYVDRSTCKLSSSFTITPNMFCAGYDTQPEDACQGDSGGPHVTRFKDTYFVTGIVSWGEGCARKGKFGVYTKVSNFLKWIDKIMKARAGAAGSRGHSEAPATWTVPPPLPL
Procedure: For the calibration, a standard sample of low molecular weight heparin (Enoxaparin) was used as reference.
The serial dilutions of the assay compound are prepared in a 0.046 M Tris buffer, pH 8.4, containing 0.15 M NaCl, 0.007 M EDTA, 0.1% of Tween 80 and 0.12 IU/ml of human antithrombin III. The samples of 50 μl of the respective dilutions are incubated with 50 μl of bovine factor Xa (13.6 U/ml) at 37° C. for 80 seconds. Next, 50 μl of chromogenic substrate, 1.1 mM S-2765, are added. The absorbance at 405 nm is measured in a photometer. The activity of the deblocked factor Xa is indicated by the emission of p-nitroaniline from the substrate.
Compared to the reference heparin compound (100 U/mg), the glycosamonoglycans present a factor Xa, with much lower inhibitory activity: […]

[2] = target: aggrecanase; assay: Effect on aggrecanase: conversion of recombinant substrate Agg1mut, ELISA with BC-3 antibody; assay type: biochemical; settings: for % Conversion: conversion of the substrate by aggrecanase in the supernatant
Procedure: Effect of the carboxyl-reduced derivatives on the aggrecanase in synovial fluids or on preparations of recombinant ADAMTS protein.
The analysis is carried out on 96-well plates. Before the analysis, serial dilutions of the assay compounds are prepared in an aqueous solution.
In each well, a fixed volume of synovial fluid or aggrecanase activity generating a known increase, between 1.0 and 1.4 absorbance units (405 nm), under the conditions of the analysis, is mixed with 3 μl of solution of compound from the respective dilution step. Dulbecco's modified Eagle's medium (DMEM) is added to each well to give a final volume of 300 μl. The plate is then incubated for 1 hour at 37° C. in a carbon dioxide atmosphere.
After the addition of 5 μl of a solution of 1 μg/μl of recombinant substrate Agglmut in DMEM to each well (substrate as described by Bartnik E. et al., EP 785274, 1997), the reagent mixture is incubated for 4 hours at 37° C. under a carbon dioxide atmosphere.
In a first step, the microplate is coated with 100 μl per well of a commercial goat anti-mouse IgG antibody for 1 hour at ambient temperature (5 μg/ml in a phosphate buffered saline solution, pH 7.4 [PBS buffer]). After washing with the PBS buffer containing 0.1% of Tween-20 (washing buffer), the wells are blocked by means of a step consisting of a one hour incubation with 100 μl per well of 5% bovine serum albumin in a PBS buffer containing 0.05% of Tween-20. Following another rinse with the washing buffer, each well is incubated with 100 μl of a solution, diluted to 1:1000, of BC-3 antibody in a PBS buffer containing 0.05% of Tween 20 and 0.5% of bovine serum albumin, at ambient temperature for one hour. This antibody recognizes the typical aggrecanase cleavage fragments (Hughes C. E. et al., Biochem. J. 305 (3), 799-804, 1995).
After another rinse of the analytical plate with the washing buffer, the complete set of mixtures originating from the preceding digestion is transferred to this plate, well by well, and incubated at ambient temperature for one hour. The plate is again washed as above. Next, 100 μl of the second antibody (anti-human IgG antibody labeled with peroxidase, 1:1000 in PBS containing 0.5% of BSA and 0.05% of Tween-20) are added to each well, with subsequent incubation at ambient temperature again for one hour. After a final rinse with the washing buffer, the color development is initiated by adding 100 μl of ABTS substrate solution (2 mg/ml, 2,2′-azinobis (3-ethylbenzothiazolinesulfonic acid) in 40 mM of sodium citrate plus 60 mM of disodium hydrogen phosphate, adjusted to a pH of 4.4 by adding acetic acid; 0.25 μl of 35% hydrogen peroxide added per ml immediately before measurement). The measurement is carried out by means of the screen mode using detection at 405 nm relative to a reference filter (620 nm) with automatic readings at 5-second intervals. The development is stopped as soon as the maximum signal (405 nm) in the absorbance range of 1.0 to 1.4 is reached.
% inhibition of conversion of the substrate by activity of the aggrecanase in the supernatant.

[3] = target: T2, MMP-2 (gelatinase-A) (Homo sapiens, UniProt P08253); assay: MMP-2 inhibitory activity, commercial ELISA kit; assay type: biochemical; settings: MMP-2 800 ng/ml; dilution series in PBS buffer, pH 7.5; in words
T2 construct: purchased Amersham Biosciences RPN2617
T2 sequence (P08253 110-660): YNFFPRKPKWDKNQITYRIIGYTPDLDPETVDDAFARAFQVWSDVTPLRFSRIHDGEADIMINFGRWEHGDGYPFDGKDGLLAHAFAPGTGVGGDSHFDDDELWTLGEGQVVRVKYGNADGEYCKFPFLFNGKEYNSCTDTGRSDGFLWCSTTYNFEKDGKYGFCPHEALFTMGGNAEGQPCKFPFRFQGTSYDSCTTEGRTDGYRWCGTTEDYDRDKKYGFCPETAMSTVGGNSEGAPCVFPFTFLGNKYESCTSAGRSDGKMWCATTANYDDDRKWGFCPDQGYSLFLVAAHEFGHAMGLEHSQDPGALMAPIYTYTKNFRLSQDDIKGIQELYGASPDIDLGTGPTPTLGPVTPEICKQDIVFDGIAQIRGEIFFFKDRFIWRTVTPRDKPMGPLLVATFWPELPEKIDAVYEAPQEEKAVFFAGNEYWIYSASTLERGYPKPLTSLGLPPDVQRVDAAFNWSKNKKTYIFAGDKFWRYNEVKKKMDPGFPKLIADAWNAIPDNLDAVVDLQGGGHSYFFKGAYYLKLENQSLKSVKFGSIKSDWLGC
Procedure: Effect of the Carboxyl-Reduced Persulfate Derivative (Example 1) for Human Metalloproteases MMP-2 (gelatinase-A) and MMP7
Commercial ELISA kits (such as those provided, for example, by the company Amersham Biosciences, kits RPN2617 and RPN2620) were used, respectively, to determine the inhibitory activity with respect to the MMP-2 and MMP-7 enzymes. The concentrations of the enzymes are, respectively, 800 ng/ml for MMP-2. The tests were carried out in accordance with the manufacturer's recommendations, by performing a series of dilutions of the compound to be studied in a PBS buffer, pH 7.5.

[4] = target: T1, bovine factor Xa; settings: standard sample used for calibration; cited from earlier work

Row | Substance | factor Xa inhibitory activity [1] [U/mg] | estimated IC50 ([2]; aggrecanase, estimated) [ng/mL] | % Conversion ([2]; glycosaminoglycan 0.0001 μg/ml) [%] | % Conversion ([2]; glycosaminoglycan 0.0003 μg/ml) [%] | % Conversion ([2]; glycosaminoglycan 0.001 μg/ml) [%] | % Conversion ([2]; glycosaminoglycan 0.003 μg/ml) [%] | % Conversion ([2]; glycosaminoglycan 0.01 μg/ml) [%] | % Conversion ([2]; glycosaminoglycan 0.03 μg/ml) [%] | inhibition of MMP-2 [3] | factor Xa inhibitory activity of the reference standard [4] [U/mg]
1 | Carboxyl-Reduced and Persulfated Chondroitin Sulfate Sodium Salt [Example 1] | 1.2 | ~4 | 100 | 99.0 | 95.1 | 69.2 | 11.6 | 14.9 | inhibited in a concentration-dependent manner | 
2 | Enoxaparin [reference heparin compound] |  |  |  |  |  |  |  |  |  | 100
